In patent US8362012B2, “Benzoxazine benzimidazole derivative, a pharmaceutical composition comprising the same, and a use thereof” (Daewoong Pharmaceutical Co., Ltd., priority 2008, dated 2013):

Target: T1, human vanilloid-1 (hVR-1) in hVR-1-HEK293 cell line (Homo sapiens, UniProt Q8NER1)
T1 construct: expressed in transfected cells; host or cells: HEK293 Tet-on strain, doxycycline-induced
Experiment: Inhibitory effect on calcium influx via a vanilloid receptor (capsaicin-stimulated, Fluo-3/AM)
Assay type: cell-based
Settings: hVR-1-HEK293 cells, 1 μM of capsaicin, compounds 0.015˜2000 nM; read-out: I.A. (inhibitory activity), IC50 on intracellular calcium influx
Experimental: The cell line can modulate the expression of VR-1, depending on whether doxycycline, a derivative of tetracycline, is present or not. […] Specifically, hVR-1-HEK293 cells were cultured in a T75 flask to about 80% confluency, separated from the flask by treating with trypsin solution, and then collected by centrifugation. The cells were suspended in a medium containing 1 μg/mL of doxycycline, and the resulting suspension was diluted to a concentration of 2˜4×10^5 cells/mL […], of the cell suspension was placed in each well of a 96-well black plate. The cells were cultured in 5% CO2 incubator at 37° C. for 2 days, and used for the following procedure. […] The cells prepared in 1) above were cultured at 37° C. for 90 min in a solution containing Fluo-3/AM, a fluorescent dye, as a calcium indicator so that the fluorescent dye was permeated into the cells. […] In order to stimulate calcium influx through a vanilloid receptor, the cells were treated with 1 μM of capsaicin. […] The obtained data were input to the Hill equation represented by the following formula I and the values were analyzed: Intracellular calcium influx= [(fluorescent intensity of experimental group−fluorescent intensity of background)/(fluorescent intensity of positive control−fluorescent intensity of background)]*100 [Formula I] The inhibitory activities were evaluated from the obtained intracellular calcium influx values according to the following criteria.

T1 sequence (Q8NER1 whole entry): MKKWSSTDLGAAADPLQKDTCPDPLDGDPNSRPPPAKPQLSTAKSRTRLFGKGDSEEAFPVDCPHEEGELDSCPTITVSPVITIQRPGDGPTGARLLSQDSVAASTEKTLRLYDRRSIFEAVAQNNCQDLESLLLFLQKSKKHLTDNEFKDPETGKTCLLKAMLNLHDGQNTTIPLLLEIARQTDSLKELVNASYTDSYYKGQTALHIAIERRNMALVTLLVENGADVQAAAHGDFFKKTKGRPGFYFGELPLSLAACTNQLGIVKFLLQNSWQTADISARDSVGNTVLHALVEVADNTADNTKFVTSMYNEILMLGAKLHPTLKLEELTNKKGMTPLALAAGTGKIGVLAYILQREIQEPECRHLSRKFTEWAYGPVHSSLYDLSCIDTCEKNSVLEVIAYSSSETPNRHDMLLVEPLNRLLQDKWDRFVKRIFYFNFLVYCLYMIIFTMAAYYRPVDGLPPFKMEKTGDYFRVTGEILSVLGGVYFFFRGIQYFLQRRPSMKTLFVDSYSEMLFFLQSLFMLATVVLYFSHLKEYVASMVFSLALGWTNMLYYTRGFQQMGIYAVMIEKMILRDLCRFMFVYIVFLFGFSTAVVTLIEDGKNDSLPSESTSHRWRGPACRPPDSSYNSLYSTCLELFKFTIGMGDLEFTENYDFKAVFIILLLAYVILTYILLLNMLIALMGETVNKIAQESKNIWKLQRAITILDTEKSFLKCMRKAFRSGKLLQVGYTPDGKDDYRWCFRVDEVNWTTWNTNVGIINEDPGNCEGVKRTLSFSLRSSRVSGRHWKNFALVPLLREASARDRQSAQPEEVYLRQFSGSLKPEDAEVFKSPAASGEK

| Compound | IC50 [nM] |
| --- | --- |
| FC(F)(F)c1ccc2nc(-c3cccc4c3OCCN4c3ncc(Cl)cc3Cl)[nH]c2c1 [Example 18, 4-(3,5-dichloro-pyridin-2-yl)-8-(6-trifluoromethyl-1H-benzimidazol-2-yl)-3,4-dihydro-2H-benzo[1,4]oxazine] | 20 to 100 |
| FC(F)(F)c1ccc2nc(-c3cccc4c3OCCN4c3ccc(Br)cn3)[nH]c2c1 [Example 19, 4-(5-bromo-pyridin-2-yl)-8-(6-trifluoromethyl-1H-benzimidazol-2-yl)-3,4-dihydro-2H-benzo[1,4]oxazine] | 20 to 100 |
| FC(F)(F)c1ccc2nc(-c3cccc4c3OCCN4c3ccc(Cl)cn3)[nH]c2c1 [Example 20, 4-(5-chloro-pyridin-2-yl)-8-(6-trifluoromethyl-1H-benzimidazol-2-yl)-3,4-dihydro-2H-benzo[1,4]oxazine] | 20 to 100 |
| C=Cc1ccc(N2c3cccc(-c4nc5c(F)cc(Br)cc5[nH]4)c3OC[C@@H]2CO)nc1 [Example 62, [(S)-8-(6-bromo-4-fluoro-1H-benzimidazol-2-yl)-4-(5-vinyl-pyridin-2-yl)-3,4-dihydro-2H-benzo[1,4]oxazin-3-yl]-methanol] | < 20 |
| C=Cc1ccc(N2c3cccc(-c4nc5c(F)cc(F)cc5[nH]4)c3OC[C@@H]2CO)nc1 [Example 63, [(S)-8-(4,6-difluoro-1H-benzimidazol-2-yl)-4-(5-vinyl-pyridin-2-yl)-3,4-dihydro-2H-benzo[1,4]oxazin-3-yl]-methanol] | 20 to 100 |
| C=Cc1ccc(N2c3cccc(-c4nc5c(Br)cc(C(F)(F)F)cc5[nH]4)c3OC[C@@H]2CO)nc1 [Example 64, [(S)-8-(4-bromo-6-trifluoromethyl-1H-benzimidazol-2-yl)-4-(5-vinyl-pyridin-2-yl)-3,4-dihydro-2H-benzo[1,4]oxazin-3-yl]-methanol] | < 20 |
| C=Cc1ccc(N2c3cccc(-c4nc5c(Cl)cc(C(F)(F)F)cc5[nH]4)c3OC[C@@H]2CO)nc1 [Example 65, [(S)-8-(4-chloro-6-trifluoromethyl-1H-benzimidazol-2-yl)-4-(5-vinyl-pyridin-2-yl)-3,4-dihydro-2H-benzo[1,4]oxazin-3-yl]-methanol] | < 20 |
| C=Cc1ccc(N2c3cccc(-c4nc5cc(F)c(Cl)cc5[nH]4)c3OC[C@@H]2CO)nc1 [Example 70, [(S)-8-(6-chloro-5-fluoro-1H-benzimidazol-2-yl)-4-(5-vinyl-pyridin-2-yl)-3,4-dihydro-2H-benzo[1,4]oxazin-3-yl]-methanol] | 20 to 100 |
| C=Cc1ccc(N2c3cccc(-c4nc5c(C(F)(F)F)cc(C(F)(F)F)cc5[nH]4)c3OC[C@@H]2CO)nc1 [Example 71, ((S)-8-(4,6-bis(trifluoromethyl)-1H-benzo[d]imidazol-2-yl)-4-(5-vinyl-pyridin-2-yl)-3,4-dihydro-2H-benzo[b][1,4]oxazin-3-yl)-methanol] | 101 to 500 |
| C=Cc1ccc(N2c3cccc(-c4nc5ccc(OC)cc5[nH]4)c3OC[C@@H]2CO)nc1 [Example 72, (S)-(8-(6-methoxy-1H-benzo[d]imidazol-2-yl)-4-(5-vinyl-pyridin-2-yl)-3,4-dihydro-2H-benzo[b][1,4]oxazin-3-yl)methanol] | 501 to 1000 |
| C=Cc1ccc(N2c3cccc(-c4nc5ccc(C#N)cc5[nH]4)c3OC[C@@H]2CO)nc1 [Example 73, (S)-2-(3-(hydroxymethyl)-4-(5-vinyl-pyridin-2-yl)-3,4-dihydro-2H-benzo[b][1,4]oxazin-8-yl)-1H-benzo[d]imidazol-6-carbonitrile] | 101 to 500 |
| C=Cc1ccc(N2c3cccc(-c4nc5ccc(C)cc5[nH]4)c3OC[C@@H]2CO)nc1 [Example 74, (S)-(8-(6-methyl-1H-benzo[d]imidazol-2-yl)-4-(5-vinyl-pyridin-2-yl)-3,4-dihydro-2H-benzo[b][1,4]oxazin-3-yl)methanol] | 101 to 500 |
| C=Cc1ccc(N2c3cccc(-c4nc5ccccc5[nH]4)c3OC[C@@H]2CO)nc1 [Example 75, (S)-(8-(1H-benzo[d]imidazol-2-yl)-4-(5-vinyl-pyridin-2-yl)-3,4-dihydro-2H-benzo[b][1,4]oxazin-3-yl)methanol] | 101 to 500 |

Second part, the compound after the results:

| IC50 [nM] | Compound |
| --- | --- |
| 20 to 100 | C=Cc1ccc(N2c3cccc(-c4nc5c(C)cccc5[nH]4)c3OC[C@@H]2CO)nc1 [Example 76, (S)-(8-(4-methyl-1H-benzo[d]imidazol-2-yl)-4-(5-vinyl-pyridin-2-yl)-3,4-dihydro-2H-benzo[b][1,4]oxazin-3-yl)methanol] |
| 20 to 100 | C=Cc1ccc(N2c3cccc(-c4nc5c(C)c(C)ccc5[nH]4)c3OC[C@@H]2CO)nc1 [Example 77, (S)-(8-(4,5-dimethyl-1H-benzo[d]imidazol-2-yl)-4-(5-vinyl-pyridin-2-yl)-3,4-dihydro-2H-benzo[b][1,4]oxazin-3-yl)methanol] |
| 20 to 100 | CCc1ccc(N2c3cccc(-c4nc5ccc(C(C)(C)C)cc5[nH]4)c3OC[C@@H]2CO)nc1 [Example 78, [(S)-8-(6-tert-butyl-1H-benzimidazol-2-yl)-4-(5-ethyl-pyridin-2-yl)-3,4-dihydro-2H-benzo[1,4]oxazin-3-yl]-methanol] |
| 20 to 100 | CCc1ccc(N2c3cccc(-c4nc5ccc(C(F)(F)F)cc5[nH]4)c3OC[C@@H]2CO)nc1 [Example 79, [(S)-4-(5-ethyl-pyridin-2-yl)-8-(6-trifluoromethyl-1H-benzimidazol-2-yl)-3,4-dihydro-2H-benzo[1,4]oxazin-3-yl]-methanol] |
| 20 to 100 | CCc1ccc(N2c3cccc(-c4nc5cc(F)c(F)cc5[nH]4)c3OC[C@@H]2CO)nc1 [Example 83, [(S)-8-(5,6-difluoro-1H-benzimidazol-2-yl)-4-(5-ethyl-pyridin-2-yl)-3,4-dihydro-2H-benzo[1,4]oxazin-3-yl]-methanol] |
| 20 to 100 | CCc1ccc(N2c3cccc(-c4nc5cc(F)c(Cl)cc5[nH]4)c3OC[C@@H]2CO)nc1 [Example 84, [(S)-8-(6-chloro-5-fluoro-1H-benzimidazol-2-yl)-4-(5-ethyl-pyridin-2-yl)-3,4-dihydro-2H-benzo[1,4]oxazin-3-yl]-methanol] |
| < 20 | COC[C@H]1COc2c(-c3nc4c(Br)cc(OC(F)(F)F)cc4[nH]3)cccc2N1c1ccc(C)cn1 [Example 105, (S)-8-(4-bromo-6-trifluoromethoxy-1H-benzimidazol-2-yl)-3-methoxymethyl-4-(5-methyl-pyridin-2-yl)-3,4-dihydro-2H-benzo[1,4]oxazine] |
| 101 to 500 | COC[C@H]1COc2c(-c3nc4ccc(OC)cc4[nH]3)cccc2N1c1ccc(C)cn1 [Example 106, (S)-8-(6-methoxy-1H-benzo[d]imidazol-2-yl)-3-(methoxymethyl)-4-(5-methyl-pyridin-2-yl)-3,4-dihydro-2H-benzo[b][1,4]oxazine] |
| 501 to 1000 | COC[C@H]1COc2c(-c3nc4c(F)cc(F)cc4[nH]3)cccc2N1c1ccc(C)cn1 [Example 107, (S)-8-(4,6-difluoro-1H-benzo[d]imidazol-2-yl)-3-(methoxymethyl)-4-(5-methyl-pyridin-2-yl)-3,4-dihydro-2H-benzo[b][1,4]oxazine] |
| 101 to 500 | COC[C@H]1COc2c(-c3nc4c(C)cccc4[nH]3)cccc2N1c1ccc(C)cn1 [Example 108, (S)-3-(methoxymethyl)-8-(4-methyl-1H-benzo[d]imidazol-2-yl)-4-(5-methyl-pyridin-2-yl)-3,4-dihydro-2H-benzo[b][1,4]oxazine] |
| 101 to 500 | COC[C@H]1COc2c(-c3nc4cc(C)ccc4[nH]3)cccc2N1c1ccc(C)cn1 [Example 109, (S)-3-(methoxymethyl)-8-(5-methyl-1H-benzo[d]imidazol-2-yl)-4-(5-methyl-pyridin-2-yl)-3,4-dihydro-2H-benzo[b][1,4]oxazine] |
| 101 to 500 | COC[C@H]1COc2c(-c3nc4ccccc4[nH]3)cccc2N1c1ccc(C)cn1 [Example 110, (S)-8-(1H-benzo[d]imidazol-2-yl)-3-(methoxymethyl)-4-(5-methyl-pyridin-2-yl)-3,4-dihydro-2H-benzo[b][1,4]oxazine] |

System: ICR male mice
Experiment: Phenyl-p-quinone (PBQ)-induced writhing experiment using mice
Assay type: in vivo
Settings: orally administered, PBQ (0.02%) intraperitoneally after 1 hour
Experimental: In order to evaluate the effect on pain of the compounds prepared in the Examples, behaviors such as twisting or writhing of body resulted from pain were verified by the phenyl-p-quinone (PBQ)-induced writhing experiment using mice. 5 week-old ICR male mice were used as experimental animals and PBQ (0.02%), as a chemical stimulator. The suspensions of 20 mg of the compounds of the present invention and an excipient such as Na—CMC (sodium carboxymethyl cellulose) in 10 mL of saline were used as test compounds. The test compounds were orally administered to the mice and after 1 hour, PBQ was intraperitoneally administrated in an amount of 10 mL per kg of body weight. Also, as a control group, equivalent amounts of BCTC were administered. The writhing number of each mouse was measured for 10 min starting from 5 min after the administration, and the analgesic effect was verified by counting the reduced number compared to the control group administered with only excipient and calculating the % inhibitory rate according to the following Formula 2. % inhibition rate=(writhing # of control group−writhing # of test group)/writhing # of control group×100 [Formula 2]

| Compound | % inhibition rate of writhing [%] |
| --- | --- |
| N-(4-tert-butylphenyl)-4-(3-chloropyridin-2-yl)piperazin-1-carboxyamide [BCTC, reference compound] | 33 |

Same assay, conditions: orally administered, PBQ (0.02%) intraperitoneally after 1 hour, writhing counted for 10 min

| Compound | I.A. (inhibitory activity), % inhibition rate of writhing |
| --- | --- |
| FC(F)(F)c1ccc2nc(-c3cccc4c3OCCN4c3ncc(Cl)cc3Cl)[nH]c2c1 [Example 18, 4-(3,5-dichloro-pyridin-2-yl)-8-(6-trifluoromethyl-1H-benzimidazol-2-yl)-3,4-dihydro-2H-benzo[1,4]oxazine] | + (<20%) |
| FC(F)(F)c1ccc2nc(-c3cccc4c3OCCN4c3ccc(Br)cn3)[nH]c2c1 [Example 19, 4-(5-bromo-pyridin-2-yl)-8-(6-trifluoromethyl-1H-benzimidazol-2-yl)-3,4-dihydro-2H-benzo[1,4]oxazine] | ++ (20˜50%) |
| FC(F)(F)c1ccc2nc(-c3cccc4c3OCCN4c3ccc(Cl)cn3)[nH]c2c1 [Example 20, 4-(5-chloro-pyridin-2-yl)-8-(6-trifluoromethyl-1H-benzimidazol-2-yl)-3,4-dihydro-2H-benzo[1,4]oxazine] | ++ (20˜50%) |
| N-(4-tert-butylphenyl)-4-(3-chloropyridin-2-yl)piperazin-1-carboxyamide [BCTC, reference compound] | ++ (20˜50%) |
